{
  "source": "patent US7118873B2",
  "about": "“Polynucleotides encoding cellular transporters and methods of use thereof” (The University of Connecticut, priority 2000, dated 2006)",
  "key": {"INDY": {"target": "T1, INDY (Drosophila melanogaster, UniProt Q9VVT2)", "T1 construct": "expressed in transfected cells; host or cells: Xenopus laevis oocytes (stage V and VI) injected with Indy mRNA", "T1 sequence (Q9VVT2 19-590 limits assumed)": "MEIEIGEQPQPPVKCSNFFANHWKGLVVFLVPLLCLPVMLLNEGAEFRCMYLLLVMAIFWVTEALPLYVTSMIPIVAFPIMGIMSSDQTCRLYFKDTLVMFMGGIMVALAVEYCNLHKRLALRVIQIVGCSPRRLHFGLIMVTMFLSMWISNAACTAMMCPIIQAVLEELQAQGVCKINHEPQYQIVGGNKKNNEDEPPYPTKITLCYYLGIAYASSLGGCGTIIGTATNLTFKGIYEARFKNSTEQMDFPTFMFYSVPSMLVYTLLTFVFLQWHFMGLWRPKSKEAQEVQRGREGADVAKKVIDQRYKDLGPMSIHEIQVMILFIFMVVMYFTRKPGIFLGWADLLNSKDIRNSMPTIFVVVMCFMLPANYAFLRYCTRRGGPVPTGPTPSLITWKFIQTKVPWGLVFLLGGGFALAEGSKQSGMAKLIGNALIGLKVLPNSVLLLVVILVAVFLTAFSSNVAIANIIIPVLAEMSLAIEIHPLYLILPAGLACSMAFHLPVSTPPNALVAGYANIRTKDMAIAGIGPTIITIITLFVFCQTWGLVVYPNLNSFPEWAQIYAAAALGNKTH", "test": "Inhibition of [14C] succinate uptake in Xenopus oocytes injected with Indy mRNA", "format": "cell-based", "protocol": "Stage V and VI oocytes from Xenopus laevis were dissected and defoliculated. The oocytes were injected with 25–50 ng of Indy mRNA 1 day after isolation. Nutrient uptake was measured 6 to 7 days later. The oocytes were maintained at 18° C. in Barth's solution containing […] gentamycin sulfate, 2.5 mM sodium pyruvate, and 5% heat-inactivated horse serum (Coady et al., Arch. Biochem. Biophys. 283: 130–134, 1990; Pajor and Wright, J. Biol. Chem 26:, 3557–3560, 1992).\nTransport measurements were performed as in Pajor, J. Biol. Chem. 270: 5779–5785, 1995. Groups of oocytes were first washed in choline buffer to remove the serum. Transport was initiated by adding 0.4 ml of [^14C] succinate or [^14C] citrate in buffer A. Buffer A comprises 100 mM NaCl, 2 mM KCl, 1 mM MgCl2, and 10 mM HEPES-Tris (pH 7.5). Buffer B is the same as buffer A except the NaCl is replaced by 100 mM choline Cl. For other cation replacement studies, the sodium was replaced by equimolar amounts of the other cations, as their chloride salts. At the completion of the transport time, the nutrient uptake was stopped with 4 washes of 4 ml of ice-cold buffer B. To count the amount of [^14C] taken up by the oocyte, each oocyte was dissolved in 0.5 ml of 10% SDS, and the [^14C] assayed by scintillation counting.\nStudies of sodium dicarboxylate cotransporters have indicated a broad range of specificity for di- and tri-carboxylic acids and the exclusion of monocarboxylic acids. The transport specificity of Indy was thus determined as the ability of various compounds to inhibit the uptake of [^14C] succinate. The test inhibitors were added at a concentration of 1 mM, approximately a 100-fold excess of inhibitor.\nThe relative affinity of INDY for succinate and citrate was determined by adding a constant amount of [^14C] succinate and increasing concentrations of citrate to oocytes expressing INDY.\nTo further characterize INDY, inhibitors of transport were added to the Indy oocyte system. P-aminohippuric Acid (PAH) is a reference compound used to study transport mechanisms. 4,4′-Diisothyocyanostilbene-2,2′-disulfonic acid (DIDS) is a specific inhibitor of channels. Phloretin is an inhibitor of channels that is known to block protein kinase C."}, "[1]": {"target": "T2, rat sodium dicarboxylate cotransporter (Rattus norvegicus, UniProt P70545)", "T2 sequence (P70545 1-587)": "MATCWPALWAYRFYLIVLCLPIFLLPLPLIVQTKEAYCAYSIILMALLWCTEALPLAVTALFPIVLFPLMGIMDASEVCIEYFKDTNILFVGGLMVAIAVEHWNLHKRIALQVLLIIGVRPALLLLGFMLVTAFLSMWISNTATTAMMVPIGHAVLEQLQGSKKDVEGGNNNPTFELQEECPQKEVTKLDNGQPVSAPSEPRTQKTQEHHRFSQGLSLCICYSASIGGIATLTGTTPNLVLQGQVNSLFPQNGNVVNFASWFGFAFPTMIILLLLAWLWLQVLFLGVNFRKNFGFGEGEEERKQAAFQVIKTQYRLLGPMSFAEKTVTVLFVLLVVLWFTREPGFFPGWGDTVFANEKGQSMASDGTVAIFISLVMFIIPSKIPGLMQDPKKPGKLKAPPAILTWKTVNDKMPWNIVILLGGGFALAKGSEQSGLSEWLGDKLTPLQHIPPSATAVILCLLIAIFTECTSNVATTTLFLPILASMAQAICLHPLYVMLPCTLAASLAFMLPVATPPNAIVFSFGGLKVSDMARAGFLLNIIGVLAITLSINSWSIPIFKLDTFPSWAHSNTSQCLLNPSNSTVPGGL", "details": "cited from earlier work"}, "[2]": {"details": "test inhibitor at 1 mM, approximately 100-fold excess, FIG. 14"}},
  "note": "Read-outs that look alike come from different tables or passages of the source.",
  "data": [
    {"smiles": "O=C(O)CCC(=O)C(=O)O", "note": "[alpha-ketoglutarate]", "values": [
      {"measurement": "inhibition of [14C] succinate uptake", "setting": "INDY; [2]", "value": "~100", "unit": "%"}
    ]},
    {"smiles": "CC(O)C(=O)O", "note": "(centres unmarked) [lactate]", "values": [
      {"measurement": "inhibition of succinate transport (in words)", "setting": "INDY; [2]", "value": "little inhibition"}
    ]},
    {"smiles": "Nc1ccc(C(=O)NCC(=O)O)cc1", "note": "[PAH, P-aminohippuric Acid]", "values": [
      {"measurement": "effect on succinate transport (in words)", "setting": "INDY; 10 mM PAH, FIG. 18", "value": "no effect"}
    ]},
    {"smiles": "N[C@@H](CCC(=O)O)C(=O)O", "note": "[glutamate]", "values": [
      {"measurement": "inhibition of succinate transport (in words)", "setting": "INDY; [2]", "value": "little inhibition"}
    ]},
    {"smiles": "O=C(O)CCC(=O)O", "note": "[succinate]", "values": [
      {"measurement": "inhibition of [14C] succinate uptake", "setting": "INDY; [2]", "value": "~100", "unit": "%"}
    ]},
    {"smiles": "O=C(O)CC(O)(CC(=O)O)C(=O)O", "note": "[citrate]", "values": [
      {"measurement": "inhibition at 100 µM", "setting": "INDY; citrate at 0.1 mM, FIG. 17", "value": "~50", "unit": "%"},
      {"measurement": "inhibition at 1000 µM", "setting": "INDY; citrate at 1 mM, FIG. 17, read-out: inhibition of succinate uptake", "value": "~90", "unit": "%"},
      {"measurement": "inhibition of succinate uptake (in words)", "setting": "INDY; citrate at 10 mM, FIG. 17", "value": "completely inhibits"},
      {"measurement": "inhibition at 1000 µM", "setting": "INDY; test inhibitor at 1 mM, approximately 100-fold excess, FIG. 14, read-out: inhibition of [14C] succinate uptake", "value": "~100", "unit": "%"}
    ]},
    {"smiles": "O=C(CCc1ccc(O)cc1)c1c(O)cc(O)cc1O", "note": "[phloretin, Phloretin]", "values": [
      {"measurement": "effect on succinate transport (in words)", "setting": "INDY; 1 mM phloretin, FIG. 18", "value": "no effect"},
      {"measurement": "effect on inward and outward currents in sodium-dependent transport", "setting": "[1]", "value": "inhibit both inward and outward currents"}
    ]},
    {"smiles": "O=S(=O)(O)O", "note": "[sulfate]", "values": [
      {"measurement": "inhibition of succinate transport (in words)", "setting": "INDY; [2]", "value": "little inhibition"}
    ]},
    {"smiles": "O=S(=O)(O)c1cc(N=C=S)ccc1C=Cc1ccc(N=C=S)cc1S(=O)(=O)O", "note": "[DIDS, 4,4′-Diisothyocyanostilbene-2,2′-disulfonic acid]", "values": [
      {"measurement": "inhibition of succinate transport", "setting": "INDY; 0.1 mM DIDS, FIG. 18", "value": 80, "unit": "%"}
    ]},
    {"smiles": "O=C(O)/C=C/C(=O)O", "note": "[fumarate]", "values": [
      {"measurement": "inhibition of [14C] succinate uptake", "setting": "INDY; [2]", "value": "~100", "unit": "%"}
    ]}
  ]
}
